In US11771725B2, “Lactobacillus having various functions, and use thereof” (University-Industry Cooperation Group of Kyung Hee …, priority 2015, dated 2023):

Legend:
[1] = tested on: itching behavior induced by compound 48/80; assay: Inhibition of itching induced by compound 48/80; assay type: in vivo; details: BALB/c mice, 1×10^9 CFU orally once a day for 3 days (control drugs 0.2 mg/mouse)
Protocol: At 1 hour after the last administration of the drug, the mice were allowed to stand in an observation cage (24 cm×22 cm×24 cm) for 10 minutes so as to be acclimated to the environment, and then the back portion of the head was shaved. […] Sigma, USA) by a 29-gauge needle. […] Scratching the injection area with the back foot was regarded as the itching behavior, and scratching other portions was not regarded.

[2] = tested on: vascular permeability induced by compound 48/80; assay: Inhibition of vascular permeability induced by compound 48/80 (Evans blue); assay type: in vivo; details: BALB/c mice, 1×10^9 CFU orally once a day for 3 days (control drugs 0.2 mg/mouse)
Protocol: It is known that itching-induced areas have increased vascular permeability. […] According to the same method as the above-described experiment for measurement of itching inhibitory activity, the drug was administered to the same mice. Next, physiological saline was injected subcutaneously into the back portion of the head of the mice of the normal group, and an itching inducer (50 μg of compound 48/80; Sigma, USA) was injected subcutaneously into the back portion of the head of the mice of the other test group. Next, 0.2 ml of 1% Evans blue solution (Sigma, USA) was injected into the tail vein, and after 1 hour, the mice were euthanized. The skin of the subcutaneously injected area was dissected, and incubated in 1 ml of 1N KOH at 37° C. overnight. On the next day, the incubated skin tissue was mixed with 4 ml of 0.6N phosphoric acid-acetone (5:13) mixture and centrifuged at 3000 rpm for 15 minutes, and the supernatant was collected and measured for absorbance at 620 nm. Inhibition (%) of vascular permeability was calculated using the following equation: Inhibition(%)={1−[absorbance of area treated with drug and itching inducer−absorbance of area not treated with itching inducer]/[absorbance of area treated with itching inducer−absorbance of area not treated with itching inducer]}×100

[3] = tested on: RBL-2H3 cell line (rat mast cell line); assay: Inhibition of degranulation in IgE-sensitized RBL-2H3 cells; assay type: cell-based; details: RBL-2H3, lactic acid bacteria 1×10^4 CFU/ml
Protocol: The RBL-2H3 cell line (rat mast cell line, the Korean Cell Line Bank, Cat. No. 22256) was cultured with DMEM (Dulbeccos' modified Eagle's medium, Sigma, 22256) containing 10% FBS (fetal bovine serum) and L-glutamine in a humidified 5% CO2 incubator at 37° C. The cells contained in the culture medium were floated using trypsin-EDTA solution, and the floated cells were isolated, collected and used in the experiment. The collected RBL-2H3 cells were dispensed into a 24-well plate at a density of 5×10^5 cells/well and sensitized by incubation with 0.5 μg/ml of mouse monoclonal IgE for 12 hours. The sensitized cells were washed with 0.5 ml of siraganian buffer (119 mM NaCl, 5 mM KCl, 0.4 mM MgCl2, 25 mM PIPES, 40 mM NaOH, pH 7.2), and then incubated with 0.16 ml of siraganian buffer (supplemented with 5.6 mM glucose, 1 mM CaCl2), 0.1% BSA) at 37° C. for 10 minutes. Next, lactic acid bacteria as a test drug were added to the cell culture to a concentration of 1×10^4 CFU/ml, or 0.04 ml of DSCG (disodium cromoglycate) as a control drug was added to the cell culture, and after 20 minutes, the cells were activated with 0.02 ml of antigen (1 μg/ml DNP-BSA) at 37° C. for 10 minutes. […] Next, the reaction was stopped by addition of 0.2 ml of 0.1M Na2CO3/NaHCO3, and the absorbance at 405 nm was measured by an ELISA analyzer.

SMILES | Inhibition (%) Itching [1] [%] | Inhibition (%) vascular permeability [2] [%] | Inhibition (%) Degranulation ([3]; first experiment) [%] | Degranulation inhibition (%) ([3]; second experiment)
CN1CCCC(n2nc(Cc3ccc(Cl)cc3)c3ccccc3c2=O)CC1 (stereo not drawn) [Azelastine] | 65 | 68 |  | 
O=C([O-])c1cc(=O)c2c(OCC(O)COc3cccc4oc(C(=O)[O-])cc(=O)c34)cccc2o1.[Na+].[Na+] [DSCG, disodium cromoglycate] | 25 | 37 | 62 | 62
